Source: patent US10722480B2, “Agent for controlling cells constituting cancer microenvironment or inflammatory microenvironment” (The University of Tokyo, priority 2015, dated 2020)

Experiments:
B16F10 melanoma cells = experiment: LDH cytotoxicity assay, B16F10 melanoma cells; format: cell-based; details: LDH release, 72 hours
Experimental: (§1) The cytotoxicity of inhibitors was tested by using LDH Cytotoxicity Detection Kit (TaKaRa) according to the manufacturer's instructions. Briefly, tumor cells were cultured in the presence or absence of an agent (disulfiram or 5FU) for 72 hours, and the culture supernatant was then collected and tested for the concentration of lactate dehydrogenase released from damaged cells. For measurement of cell proliferation, cells were incubated in a plate well together with an inhibitor for 48 hours. During the last 30 minutes, WST-1 (Dojindo Laboratories) was added to the culture liquid, and the absorbance of each well was measured at 450 nm versus 650 nm reference using EnVision (PerkinElmer) to detect the formazan level.

B16 melanoma cells = experiment: Combined use with anti-PD-1 antibody, B16 tumor-bearing model; format: in vivo, mouse; details: DSF in feed from Day 4, anti-PD-1 antibody 0.2 mg i.p. x4
Experimental: To provide an example of combined use of an anticancer drug and disulfiram (DSF), the effect of combined use of an anti-PD-1 antibody, which is an anticancer drug targeting an immune checkpoint molecule, and DSF was studied using an LLC tumor-bearing model and a B16 tumor-bearing model. The B16 tumor-bearing model was prepared by transplanting 5×10^5 B16 melanoma cells to the right abdomen of each of wild-type C57BL/6 mice. Preparation of the LLC tumor-bearing model was carried out in the same manner as in the above-described section 3. A feed supplemented with DSF was provided in the same manner as in the above-described section 3.
The day of the transplantation of the tumor cells to the mice was defined as Day 0. From Day 4, the mice were fed with the feed supplemented with DSF or a control feed every day during the experimental period. An anti-PD-1 antibody (J43, manufactured by BioXcell) was intraperitoneally administered once at a dose of 0.2 mg on each of Day 5, Day 8, Day 14, and Day 18 (four times in total). To provide a control for the antibody administration, PBS was intraperitoneally administered. The tumor size was measured using a caliper twice a week, and the tumor volume was calculated.

CCR2 = molecular target: T1, CCR2 (Homo sapiens, UniProt P41597); experiment: Surface plasmon resonance binding to CCR2; details: SPR
T1 sequence (P41597 1-360 isoform P41597-2): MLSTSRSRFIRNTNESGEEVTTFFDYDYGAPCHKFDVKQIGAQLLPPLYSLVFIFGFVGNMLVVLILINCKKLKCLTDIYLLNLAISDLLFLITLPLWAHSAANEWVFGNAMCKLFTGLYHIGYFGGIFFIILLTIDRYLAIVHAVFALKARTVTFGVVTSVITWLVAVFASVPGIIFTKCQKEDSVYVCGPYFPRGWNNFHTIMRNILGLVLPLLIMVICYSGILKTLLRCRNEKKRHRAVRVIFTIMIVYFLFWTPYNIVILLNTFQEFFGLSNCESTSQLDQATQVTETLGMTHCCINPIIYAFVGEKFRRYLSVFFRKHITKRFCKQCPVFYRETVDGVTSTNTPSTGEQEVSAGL

[1] = system: infiltrating cells in the peritoneum (macrophages, neutrophils); experiment: In vivo chemotaxis assay (thioglycolate peritonitis); set-up: species or system mouse; details: wild-type mice
Experimental: Peritonitis was induced by intraperitoneal administration of 2 mL of 4% thioglycolate medium (Difco) to each of FNT^flox/flox mice and FNT-cKO mice. Infiltrating cells in the peritoneum were collected by injecting 5 mL of ice-cold PBS into the abdominal cavity and giving a gentle massage. The collected cells was washed with PBS containing 0.1% FBS, and then subjected to flow cytometry analysis to investigate the cell number and the cell populations. The same treatment as in the above-described section 8 was carried out on wild-type mice to induce peritonitis, and infiltrating cells in the peritoneum were collected. After washing the collected cells, flow cytometry analysis was carried out to investigate the cell number and the cell populations. For evaluation of disulfiram, disulfiram was dissolved in DMSO, and then diluted in 2% Tween 80-containing physiological saline to each concentration shown in the figure. Each resulting disulfiram solution was administered to mice 1 day before and 30 minutes before the administration of thioglycolate.

LLC tumor cells = experiment: LDH cytotoxicity assay, LLC tumor cells; format: cell-based; details: LDH release, 72 hours
Experimental: as §1

FROUNT-CCR5 interaction = molecular target: T2, FROUNT-CCR5 interaction (Homo sapiens, UniProt Q9BW27); experiment: HTRF binding inhibition assay, FROUNT-CCR5 interaction; details: result in words
T2 construct: made in house
T2 sequence (Q9BW27 500-656): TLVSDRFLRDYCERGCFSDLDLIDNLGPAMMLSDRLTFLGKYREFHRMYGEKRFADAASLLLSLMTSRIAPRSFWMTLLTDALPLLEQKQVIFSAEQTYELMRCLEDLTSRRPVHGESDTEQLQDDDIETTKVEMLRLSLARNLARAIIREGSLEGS
Experimental: For the screening, a compound library containing 131,200 kinds of compounds dissolved in DMSO at a concentration of 10 mM or 2 mM (obtained from Open Innovation Center for Drug Discovery, the University of Tokyo) was used. The HTRF assay was carried out using a 384-well low-dose white microplate (Corning Coaster; catalog number 3676). In each well, 4 μL of a solution of 20 nM GST fusion FROUNT protein (a recombinant polypeptide prepared by fusing GST to aa 500-656 of SEQ ID NO:2), and DMSO or test compounds were mixed with a binding buffer (10 mM HEPES [pH 7.4], 0.2 M potassium fluoride, 10 mM NaCl, 0.1% Tween 20, and 0.5% bovine serum albumin [BSA]), and the plate was incubated at room temperature for 30 minutes. […]. After incubation at room temperature for 20 hours, the HTRF signal was measured at emission wavelengths of 620 nm and 665 nm using a multilabel counter EnVision (PerkinElmer).
By the same HTRF assay as described above, the abilities of disulfiram to inhibit the FROUNT-CCR2 interaction or the FROUNT-CCR5 interaction were investigated. As the CCR5 pro-C peptide, the 16 residues […] (SEQ ID NO:4) in the C-terminal region of CCR5 was used. As a control, the p53-MDM2 interaction (which is inhibited by an MDM-2-specific inhibitor Nutlin), which is also a helix peptide-protein interaction like the interaction between FROUNT and CCR2 or CCR5 but is not related thereto, was used.

CCN(CC)C(=S)SSC(=S)N(CC)CC [DSF, disulfiram]
cytotoxic activity on B16F10 melanoma cells (B16F10 melanoma cells): did not show any action
inhibitory effect on cancer hyperplasia (tumor volume) (B16 melanoma cells): not observed at a significant level
binding to CCR2 (CCR2): did not bind
infiltration of macrophages into peritoneal inflammatory sites [1]: reduced
infiltration of neutrophils into peritoneal inflammatory sites [1]: not influenced
cytotoxic activity on LLC tumor cells (LLC tumor cells): did not show cytotoxic activity
inhibition of FROUNT-CCR5 interaction (FROUNT-CCR5 interaction): selectively inhibited
